Experimental data from patent US9550763B2, “Heterocyclic ring and carbocyclic derivative” (Shionogi & Co., Ltd., priority 2012, dated 2017).

Biological target: human P2X3 receptor (Homo sapiens (Human), UniProt P56373)
Test: Evaluation of human P2X3 receptor inhibitory activity (Test Example 1-1, FDSS 3000, 96-well, 50 nM ATP)
Format: cell-based
Conditions: human P2X3 receptor in C6BU-1 cells; Test Example 1-1 (compounds I-001 to I-300)
Description: Stably expressing cell line (C6BU-1 cell transfected with human P2X3 receptor gene (GenBank accession number Y07683) was used. The cells were seeded in a 96-well microtiter plate at a concentration of 8000 cells/well and cultured in the medium (7.0% fetal bovine serum, 7.0% horse serum, 1% antibiotic and antifungal in DMEM) for one day at 37° C. under 5% carbon dioxide atmosphere. The medium was replaced with 4 μM Fluo-3-AM solution (20 mM HEPES, 137 mM NaCl, 5.27 mM KCl, 0.9 mM MgCl2, 1.26 mM CaCl2, 5.6 mM D-glucose, 2.5 mM probenecid, 1% BSA, and 0.08% Pluronic F-127, pH 7.5) and incubated at 37° C. under 5% dioxide carbon atmosphere for one hour. The plate was washed with washing buffer (20 mM HEPES, 137 mM NaCl, 5.27 mM KCl, 0.9 mM MgCl2, 1.26 mM CaCl2, 5.6 mM D-glucose, 2.5 mM probenecid, pH7.5), and each well was added with 40 μL of this buffer. The plate was placed in High-Throughput Screening System. FDSS 3000 (Hamamatsu Photonics K.K.). Measurement of fluorescence intensity by FDSS 3000 was started, and 40 μL of DMSO solutions containing different concentrations of the test compound as prepared by dilution with dilution buffer (20 mM HEPES, 137 mM NaCl, 5.27 mM KCl, 0.9 mM MgCl2, 1.26 mM CaCl2, 5.68 mM D-glucose, 2.5 mM probenecid, 0.1% Pluronic F-127, pH7.5) were dispensed to each well through the built-in automatic dispenser. Five minutes after, 50 nM ATP solution (50 μL) prepared by dilution with the dilution buffer was dispensed through the built-in automatic dispenser, and the measurement of fluorescence intensity was continued for 4 min. For each well, the specific maximum fluorescence intensity was calculated as the ratio of the maximum fluorescence intensity after addition of the ATP solution to the fluorescence intensity at the starting of the measurement. The 50% inhibitory concentration (IC50) was calculated under the assumption that the specific maximum fluorescence intensity without test compound is 0% inhibition and that the specific maximum fluorescence intensity when the dilution buffer was added in place of ATP solution is 100% inhibition, to evaluate the inhibitory activity of the test compound. FDSS software (Hamamatsu Photonics K.K.) was used for calculation of the specific maximum fluorescence intensity. IC50 was calculated using Microsoft Excel (Microsoft Corporation) and XLfit (idbs Ltd.)
The data of the compounds I-001 to I-300 are the results by the method mentioned in Test Example 1-1, and the data of the compounds I-301 to I-483 are the results by the method mentioned in Test Example 1-2.

Sequence of human P2X3 receptor (P56373 whole entry): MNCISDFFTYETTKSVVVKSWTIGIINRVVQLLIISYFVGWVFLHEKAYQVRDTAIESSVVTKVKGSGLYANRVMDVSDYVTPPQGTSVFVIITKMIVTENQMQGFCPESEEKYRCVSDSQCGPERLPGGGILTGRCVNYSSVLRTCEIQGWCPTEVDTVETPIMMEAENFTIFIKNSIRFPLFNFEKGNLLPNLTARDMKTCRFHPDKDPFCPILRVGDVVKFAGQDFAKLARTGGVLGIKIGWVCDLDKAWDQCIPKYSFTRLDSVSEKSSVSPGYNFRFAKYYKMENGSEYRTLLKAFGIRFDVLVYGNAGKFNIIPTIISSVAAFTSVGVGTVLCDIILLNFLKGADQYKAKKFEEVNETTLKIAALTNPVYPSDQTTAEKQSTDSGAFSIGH

Row | Compound | IC50
1 | O=C(Nc1c[nH]/c(=N\c2ccc(Oc3ccon3)cc2)n(Cc2ccc(Cl)cc2)c1=O)c1ccoc1 [Compound I-267] | 45 nM
2 | CCc1oc2ccc(/N=c3\[nH]cc(CN4CCOCC4)c(=O)n3Cc3ccc(Cl)cc3)cc2c1C [Compound I-057] | 269 nM
3 | NC(=O)c1c[nH]/c(=N\c2ccc(Oc3ncccc3F)cc2)n(Cc2ccc(Cl)cc2)c1=O [Compound I-110] | 27 nM
4 | Cc1cnc(-c2c[nH]/c(=N\c3ccc(Oc4cccc(C(N)=O)n4)cc3)n(Cc3ccc(Cl)cc3)c2=O)o1 [Compound I-288] | 15 nM
5 | CN(C)C(=O)CNC(=O)c1cn(Cc2ccc(Cl)cc2)c(Nc2ccc(Oc3cccc(F)n3)cc2)nc1=O [Compound I-299] | 18 nM
6 | Cc1ccc(Cn2cc(C(=O)NC3CCOCC3)c(=O)nc2Nc2ccc(Oc3cccc(F)n3)cc2)cc1 [Compound I-282] | 6 nM
7 | O=C(Nc1c[nH]/c(=N\c2ccc(Oc3ccon3)cc2)n(Cc2ccc(Cl)cc2)c1=O)c1ccccc1 [Compound I-253] | 61 nM
8 | CCn1c(=O)cc(Nc2ccc(Oc3cccc(C(N)=O)c3)cc2)n(Cc2ccc(Cl)cc2)c1=O [Compound I-024] | 14 nM
9 | O=c1c(NC(=O)[C@H]2C[C@@H](F)C2)c[nH]/c(=N\c2ccc(Oc3ccon3)cc2)n1Cc1ccc(Cl)cc1 [Compound I-219] | 14 nM
10 | O=C(Nc1c[nH]/c(=N\c2ccc(Oc3ccc(F)cn3)cc2)n(Cc2ccc(Cl)cc2)c1=O)C1COC1 [Compound I-214] | 13 nM
11 | CCCn1c(=O)cc(Nc2ccc(Oc3cnc(C#N)nc3)cn2)n(Cc2ccc(Cl)cc2)c1=O [Compound I-196] | 37 nM
12 | CCn1c(=O)cc(Nc2ccc(Oc3cccc(C#N)n3)cc2)n(Cc2ccc(Cl)cc2)c1=O [Compound I-009] | 5 nM
13 | CCc1oc2ccc(Nc3ncc(NC(=O)C4CCOCC4)c(=O)n3Cc3ccc(Cl)cc3)cc2c1C [Compound I-077] | 191 nM
14 | O=C(Nc1c[nH]/c(=N\c2ccc(Oc3ccon3)cc2)n(Cc2ccc(Cl)cn2)c1=O)C1CCOCC1 [Compound I-275] | 51 nM
15 | CN(C)C(=O)c1c[nH]/c(=N\c2ccc(Oc3cccc(F)n3)cc2)n(Cc2ccc(Cl)cc2)c1=O [Compound I-195] | 70 nM
16 | O=C(NC1CCOCC1)c1cn(Cc2ccccc2F)c(Nc2ccc(Oc3cccc(F)n3)cc2)nc1=O [Compound I-284] | 42 nM
17 | CN(C(=O)C1CCOCC1)c1c[nH]/c(=N\c2ccc(Oc3ccon3)cc2)n(Cc2ccc(Cl)cc2)c1=O [Compound I-109] | 34 nM
18 | CCC(=O)N(CC)c1c[nH]/c(=N\c2ccc(Oc3cccc(C(=O)O)n3)cc2)n(Cc2ccc(Cl)cc2)c1=O [Compound I-193] | 6 nM
19 | N#Cc1cc(Oc2ccc(Nc3nc(=O)c(C(=O)NC4CCOCC4)cn3Cc3ccc(Cl)cc3)cc2)ccn1 [Compound I-227] | 6 nM

Row | Compound | IC50
20 | CCC(=O)Nc1c[nH]/c(=N\c2ccc(Oc3cnc(C(=O)O)cn3)cc2)n(Cc2ccc(Cl)cc2)c1=O [Compound I-094] | 10 nM
21 | NC(=O)c1c[nH]/c(=N\c2ccc(Oc3ccc(F)cn3)cc2)n(Cc2ccc(Cl)cc2)c1=O [Compound I-142] | 26 nM
22 | CCc1c[nH]/c(=N\c2ccc(Oc3cccc(C(=O)O)n3)cc2)n(Cc2ccc(Cl)cc2)c1=O [Compound I-144] | 35 nM
23 | O=C(NCCO)c1c[nH]/c(=N\c2ccc(Oc3ncccc3F)cc2)n(Cc2ccc(Cl)cc2)c1=O [Compound I-111] | 22 nM
24 | CCOC(=O)c1c[nH]/c(=N\c2ccc(Oc3ccon3)cc2)n(Cc2ccc(Cl)cc2)c1=O [Compound I-096] | 64 nM
25 | O=C(Nc1c[nH]/c(=N\c2ccc(Oc3ccon3)cc2)n(Cc2ccc(Cl)cc2)c1=O)c1cccnc1 [Compound I-265] | 48 nM
26 | O=C(Nc1c[nH]/c(=N\c2ccc(Oc3ccon3)cc2)n(Cc2ccc(Cl)cc2)c1=O)C1CC(F)(F)C1 [Compound I-211] | 15 nM
27 | O=c1c(NC(=O)[C@H]2C[C@H](O)C2)c[nH]/c(=N\c2ccc(Oc3ccon3)cc2)n1Cc1ccc(Cl)cc1 [Compound I-183] | 6 nM
28 | CCOC(=O)c1c[nH]/c(=N\c2ccc(Oc3cccc(C#N)n3)cc2)n(Cc2ccc(Cl)cc2)c1=O [Compound I-153] | 21 nM
29 | O=C(Nc1c[nH]/c(=N\c2ccc(Oc3ccon3)cc2)n(Cc2ccc(Cl)cc2)c1=O)C1CCOC1 (centres unmarked) [Compound I-192] | 6 nM
30 | CCOC(=O)c1cnc(Nc2ccc(Oc3cccc(C(N)=O)n3)cc2)n(Cc2ccc(Cl)cc2)c1=O [Compound I-043] | 7 nM
31 | O=c1cc[nH]/c(=N\c2ccc(Oc3ccc(F)cn3)cc2)n1Cc1ccc(Cl)cc1 [Compound I-152] | 291 nM
32 | CCc1oc2ccc(/N=c3\[nH]cc(C(C)=O)c(=O)n3Cc3ccc(Cl)cc3)cc2c1C [Compound I-073] | 140 nM
33 | CCC(=O)Nc1c[nH]/c(=N\c2ccc(Oc3ccon3)cc2)n(Cc2ccc(Cl)cc2)c1=O [Compound I-088] | 49 nM
34 | CCn1c(=O)cc(Nc2ccc(Oc3cccc(C(=O)O)n3)cn2)n(Cc2ccc(Cl)cc2)c1=O [Compound I-125] | 23 nM
35 | COC(=O)[C@@H](C)Cn1c(=O)cc(Nc2ccc(Oc3cccc(F)n3)cc2)n(Cc2ccc(Cl)cc2)c1=O [Compound I-116] | 6 nM
36 | CCn1c(=O)cc(Nc2ccc(Oc3cccc(C(N)=O)n3)cc2)n(Cc2ccc(Cl)cc2)c1=O [Compound I-025] | 6 nM
37 | COC(=O)[C@@H](C)Cn1c(=O)cc(Nc2ccc(Oc3ncccc3F)cc2)n(Cc2ccc(Cl)cc2)c1=O [Compound I-115] | 9 nM
38 | CCOC(=O)c1cn(Cc2ccc(Cl)cc2)c(Nc2ccc3oc(CC)c(C)c3c2)nc1=O [Compound I-015] | 160 nM

Row | Compound | IC50
39 | O=C(Nc1c[nH]/c(=N\c2ccc(Oc3ccon3)cc2)n(Cc2ccc(Cl)cc2)c1=O)c1ccno1 [Compound I-223] | 78 nM
40 | CCn1c(=O)cc(Nc2ccc(Oc3cccc(C#N)n3)cn2)n(Cc2ccc(Cl)cc2)c1=O [Compound I-124] | 19 nM
41 | NC(=O)c1cccc(Oc2ccc(Nc3ncc(NC(=O)C4CCOCC4)c(=O)n3Cc3ccc(Cl)cc3)cc2)n1 [Compound I-038] | 2 nM
42 | CN/C(=N\C#N)Nc1c[nH]/c(=N\c2ccc(Oc3ccon3)cc2)n(Cc2ccc(Cl)cc2)c1=O [Compound I-243] | 557 nM
43 | Cc1noc(-c2c[nH]/c(=N\c3ccc(Oc4ccc(F)cn4)cc3)n(Cc3ccc(Cl)cc3)c2=O)n1 [Compound I-151] | 31 nM
44 | CCc1oc2ccc(/N=c3\[nH]cc(CNC4CCOCC4)c(=O)n3Cc3ccc(Cl)cc3)cc2c1C [Compound I-049] | 225 nM
45 | O=C(Nc1c[nH]/c(=N\c2ccc(Oc3ccon3)cc2)n(Cc2ccc(Cl)cc2)c1=O)C1CNC1 [Compound I-181] | 131 nM
46 | CCCn1c(=O)cc(Nc2ccc(Oc3cccc(C(=O)OCC)c3)cn2)n(Cc2ccc(Cl)cc2)c1=O [Compound I-166] | 169 nM
47 | NC(=O)c1ccc(Oc2ccc(Nc3nc(=O)c(C(=O)NC4CCOCC4)cn3Cc3ccc(Cl)cc3)cc2)cn1 [Compound I-200] | 10 nM
48 | Cc1oncc1C(=O)Nc1c[nH]/c(=N\c2ccc(Oc3ccon3)cc2)n(Cc2ccc(Cl)cc2)c1=O [Compound I-269] | 16 nM
49 | O=C(NC1CCOCC1)c1cn(Cc2ccc(Cl)cc2)c(Nc2ccc(Oc3nccs3)cc2)nc1=O [Compound I-161] | 22 nM
50 | O=C(Nc1c[nH]/c(=N\c2ccc(Oc3ccon3)cc2)n(Cc2ccc(Cl)cc2)c1=O)C1CCNCC1 [Compound I-186] | 72 nM
51 | CCC(=O)Nc1c[nH]/c(=N\c2ccc(Oc3ccnc(CO)c3)cc2)n(Cc2ccc(Cl)cc2)c1=O [Compound I-163] | 21 nM
52 | N#Cc1c[nH]/c(=N\c2ccc(Oc3ccc(F)cn3)cc2)n(Cc2ccc(Cl)cc2)c1=O [Compound I-261] | 498 nM
53 | CCc1oc2ccc(Nc3nc(=O)c(C(=O)NC(C)C)cn3Cc3ccc(Cl)cc3)cc2c1C [Compound I-022] | 94 nM
54 | O=C(NC1CCOCC1)c1cn(Cc2ccc(Cl)cc2)c(Nc2ccc(Oc3cccc(F)n3)cc2)nc1=O [Compound I-156] | 6 nM
55 | CCC(=O)N(CC)c1c[nH]/c(=N\c2ccc(Oc3cccc(C#N)n3)cc2)n(Cc2ccc(Cl)cc2)c1=O [Compound I-189] | 12 nM
56 | CCc1oc2ccc(/N=c3\[nH]cc(NC(=O)C4CCOCC4)c(=O)n3Cc3ccc(Cl)cc3)cc2c1C [Compound I-030, 1-(4-chlorobenzyl)-2-(2-ethyl-3-methylbenzofuran-5-ylamino)-5-(tetrahydro-2H-pyran-4-ylcarbonylamino)pyrimidin-6(1H)-one] | 5 nM
